Measured values from publication PMC11181328 (Journal of Medicinal Chemistry, 2024).
Read-outs that look alike come from different tables or passages of the source.

Key:
[1] = Drug distribution study (brain and plasma, LC-MS/MS); assay type: in vivo, mouse; settings: 0.1 mg/kg s.c.; for Kp at 5 min / Kp at 10 min / Kp at 0.5 h / Kp at 1 h: Swiss Webster, mouse, sc, read-out: B/P (brain-to-plasma concentration ratio); for Kp at 0.5 h: 30 min; for Kp at 1 h: 60 min
Experimental: To examine the potential for these compounds to exert their effects on the central nervous system, a drug distribution study monitoring blood–brain barrier penetration was used. […] Plasma and brain homogenate were then analyzed via liquid chromatography with tandem mass spectrometry (LC-MS/MS) to allow calculation of brain-to-plasma ratios.[78]
The test compound was administered s.c., and a group of Swiss Webster mice was euthanized by decapitation at each time point (5, 10, 30, 60 min post injection) allowing whole brain and blood samples to be harvested. Brain samples were washed with saline to ensure removal of any blood on the isolated brain and were then immersed in 300 μL saline. Blood samples were centrifuged for 10 min (15,000g; 4 °C) to collect plasma. Brain and plasma samples were stored at −80 °C until further analysis.
Identification and quantification of test compound in mouse brain and plasma were performed using a modification of a previously described method with an internal standard of naloxone-d5.[126] Compounds were extracted from both blood and brain by a liquid/liquid extraction. Briefly, brain tissue samples were homogenized 1-part tissue to 3-parts water. Seven-point calibration curves (10–1000 ng/mL or ng/g) in plasma, drug free control, a negative control without internal standard in plasma and brain, and quality control specimens in plasma and brain (30, 300, and 750 ng/mL or ng/g) were prepared and analyzed with each batch of samples. […], was added at 10 ng/mL concentration to aliquots of either 100 μL for blood or 400 μL for brain homogenate to each calibrator, control, or specimen except the negative control. To these samples, 0.5 mL of saturated carbonate/bicarbonate buffer (1:1, pH 9.5) and 2.0 mL of chloroform/2-propanol (8:2) were added. The samples were then mixed and centrifuged. The top, aqueous layer was aspirated, and the organic layer was transferred to a clean test tube and evaporated to dryness under nitrogen. The samples were then reconstituted in 80:[…] and transferred to autosampler vials for analysis. The chromatographic separation of test compounds and naloxone-d5 was accomplished using a Shimadzu Nexera X2 liquid chromatography system and a Zorbax XDB-C18 4.6 × 75 mm, 3.5 μm column (Agilent Technologies, Santa Clara, CA). The mobile phases consisted of (A) water with 1 g/L ammonium formate and 0.1% formic acid, and (B) methanol. The flow rate was set to 1 mL/min. The mobile phase started with 20% B and was increased to 80% B at 1.0 min and held constant for 1.5 min before returning to 20% B. The system detector was a Sciex 6500 QTRAP system with an IonDrive Turbo V source for TurboIonSpray (Sciex, Ontario, Canada) that had the curtain gas flow rate set at 30 mL/min and the ion source gases 1 and 2 at 60 mL/min. The source temperature was set at 650 °C with an ionspray voltage was 5500 V. The declustering potential was 58 eV.
The primary dependent measures are (1) the plasma concentration of the test compound (μg/mL), (2) the brain concentration of the test compound (μg/g), and (3) the brain-to-plasma concentration ratio calculated as [brain]/[plasma]. Concentrations were determined by a linear regression plot based on peak ratios of the calibrators. Data are shown as mean ± SEM. Data were compared using one-way ANOVA as appropriate and a significant ANOVA was followed by a Dunnet’s post hoc test as appropriate. Statistical significance was defined as p < 0.05.

MOR [2] = molecular target: T1, MOR (Mus musculus, UniProt P42866); experiment: [35S]-GTPγS functional assay, MOR; assay type: biochemical; set-up: expressed in transfected cells; membrane homogenate; settings: for EC50: mMOR-CHO membranes; for [35S]-GTPγS functional activity MOR Emax (%): percent of DAMGO full agonist control; for Emax: read-out: [35S]-GTPγS functional activity MOR Emax (%)
DOR [3] = molecular target: T2, DOR (Homo sapiens, UniProt P41143); experiment: [35S]-GTPγS functional assay, DOR; assay type: biochemical; settings: for EC50: hDOR-CHO membranes; for Emax: percent of SNC80 full agonist control
T2 construct: expressed in transfected cells; membrane homogenate

male Swiss Webster mice [4] = experiment: Warm-water tail immersion assay, time course study; assay type: in vivo, mouse; settings: for onset of antinociceptive effects: s.c.
in vitro = settings: human, s9
male Swiss Webster mice [5] = experiment: Locomotor activity assay; assay type: in vivo, mouse; settings: s.c., 30 min session; for average speed by time versus vehicle: Figure 6F–H
Experimental: This hypolocomotion could result in false positives in assays of evoked antinociception such as WWTI.[115] Thus, a locomotor activity assay was utilized to assess this end point in accordance with previous studies.[28] In brief, the day prior to testing, mice were placed in the open field chamber for acclimation. On the test day, they were injected with compounds 21, 23, NLF, or vehicle and immediately placed back into the open field chamber. Photo beam breaks then recorded the mouse’s locomotion over a 30 min test period.
Six open field activity chambers (Med Associates, St. Albans, VT) were used in the locomotor activity study. Each chamber is located inside a sound-attenuating cubicle (Med Associates) and is equipped with a ventilation system. The interior of the chamber consists of a 27 × 27 cm plexiglass enclosure wired with photobeam cells and connected to a computer console that monitors the activity of the animal.
The day before the experiment, mice were acclimated to the activity chambers for a period of 30 min. On the day of the experiment, mice were administered vehicle or test compound s.c., placed into the activity chambers immediately and activity was monitored and recorded for a period of 30 min.
The primary dependent measures are total (1) distance traveled (cm), (2) ambulatory counts, (3) vertical counts, and (4) average speed (cm/s) within the 30 min session. Data are shown as mean ± SEM. Data were compared using one-way or two-way ANOVA as appropriate and a significant ANOVA was followed by a Dunnet’s post hoc test as appropriate. Statistical significance was defined as p < 0.05.

DOR [6] = molecular target: T2, DOR; experiment: Competitive radioligand binding assay, DOR
male Swiss Webster mice [7] = experiment: Warm-water tail immersion assay, receptor selectivity study; assay type: in vivo, mouse; settings: for antagonism of antinociceptive effects by nor-BNI (KOR antagonist) pretreatment: 10 mg/kg nor-BNI s.c. 24 h prior to 0.1 mg/kg test compound s.c. (23 also 0.05 mg/kg); for antagonism of antinociceptive effects by β-FNA (MOR antagonist) pretreatment: 10 mg/kg β-FNA s.c. 24 h prior to 0.1 mg/kg test compound s.c.; for antagonism of antinociceptive effects by NTI (DOR antagonist) pretreatment: 15 mg/kg NTI s.c. 30 min prior to 0.1 mg/kg test compound s.c. (23 also 0.05 mg/kg); for antagonism of antinociceptive effects by NTI and nor-BNI pretreatment together: nor-BNI 10 mg/kg + NTI 15 mg/kg s.c. prior to test compound
KOR = molecular target: T3, KOR (Mus musculus, UniProt P33534); experiment: Competitive radioligand binding assay, KOR; settings: for radioligand binding affinity (Ki, nM) KOR: [3H]diprenorphine, mKOR-CHO membranes; for selectivity ratio δ/κ / selectivity ratio μ/κ: ratio of Ki values
T3 construct: expressed in transfected cells; membrane homogenate

MOR [8] = molecular target: T1, MOR; experiment: Competitive radioligand binding assay, MOR; set-up: expressed in transfected cells; membrane homogenate; settings: for radioligand binding affinity (Ki, nM) MOR: [3H]naloxone, mMOR-CHO membranes
[9] = warm water tail immersion studies (Figure 3)

For `CN(C(=O)/C=C/c1ccco1)[C@@H]1CC[C@@]2(O)[C@H]3Cc4ccc(O)c5c4[C@@]2(CCN3CC2CC2)[C@H]1O5.Cl` [Compound 23, 17-Cyclopropylmethyl-3,14β-dihydroxy-4,5α-epoxy-6β-[(2E)-3′-(furan-2″-yl)-N-methylprop-2-enamido]morphinan Hydrochloride], which “time point of highest plasma concentration” value [1] is on record?
Its value is 5 min.

What about the Kp at 5 min ([1]; brain) of the same molecule?
Its Kp at 5 min is 0.05.

What about the Kp at 10 min ([1]; brain) of the same molecule?
The Kp at 10 min was 0.762.

What about the Kp at 0.5 h ([1]; brain) of the same molecule?
The Kp at 0.5 h was 0.645.

And the Kp at 1 h ([1]; brain)?
Its Kp at 1 h is 1.45.

What about the EC50 (MOR [2]) of the same molecule?
Its EC50 is 5.31 ± 0.53 nM.

And the “[35S]-GTPγS functional activity MOR Emax (%)” value (MOR [2])?
The value was “low efficacy MOR partial agonism”.

And the Emax (MOR [2])?
The Emax was 14.2 ± 1.77%.

What about the EC50 (DOR [3]) of the same molecule?
The EC50 was 16.4 ± 3.25 nM.

What about the Emax (DOR [3]) of the same molecule?
Its Emax is > 80%.

What about the “antinociceptive effects significant until (time postinjection)” value (male Swiss Webster mice [4]; 0.05 mg/kg s.c.) of the same molecule?
Its value is 3 h.

And the “antinociceptive effects significant until (time postinjection)” value (male Swiss Webster mice [4]; 0.1 mg/kg s.c.)?
The value was 6 h.

And the duration of action (male Swiss Webster mice [4]; 0.5 mg/kg s.c.)?
The duration of action was 3 h.

And the “onset of antinociceptive effects” value (male Swiss Webster mice [4])?
The value was “approximately 30 min”.

What about the duration of action (male Swiss Webster mice [4]; [9]) of the same molecule?
Its duration of action is > 3 h.

What about the half-life (in vitro) of the same molecule?
The half-life was > 2 h.

And the microsomal CLint (in vitro)?
The microsomal CLint was < 5.8 µL/min/mg.

And the locomotor activity (male Swiss Webster mice [5])?
The locomotor activity was “dose-dependent decrease in locomotor activity across all end points”.

What about the “average speed by time versus vehicle” value (male Swiss Webster mice [5]) of the same molecule?
The value was “significantly different from vehicle”.

What about the Ki (DOR [6]) of the same molecule?
Its Ki is 7.93 ± 1.02 nM.

What about the “antagonism of antinociceptive effects by nor-BNI (KOR antagonist) pretreatment” value (male Swiss Webster mice [7]) of the same molecule?
The value was “slight, nonsignificant decrease”.

And the “antagonism of antinociceptive effects by β-FNA (MOR antagonist) pretreatment” value (male Swiss Webster mice [7])?
Its value is “not antagonized by β-FNA”.

And the “antagonism of antinociceptive effects by NTI (DOR antagonist) pretreatment” value (male Swiss Webster mice [7])?
The value was “antagonized by NTI”.

What about the “antagonism of antinociceptive effects by NTI and nor-BNI pretreatment together” value (male Swiss Webster mice [7]) of the same molecule?
The value was “enhanced antagonism”.

And the Ki (KOR)?
The Ki was 0.22 ± 0.03 nM.

What about the “radioligand binding affinity (Ki, nM) KOR” value (KOR) of the same molecule?
Its value is “subnanomolar”.

What about the “selectivity ratio δ/κ” value (KOR) of the same molecule?
The value was 36.

What about the “selectivity ratio μ/κ” value (KOR) of the same molecule?
The value was 4.

What about the Ki (MOR [8]) of the same molecule?
The Ki was 0.78 ± 0.05 nM.

What about the “radioligand binding affinity (Ki, nM) MOR” value (MOR [8]) of the same molecule?
The value was “subnanomolar”.

Which results are given for `CN(C(=O)/C=C/c1ccco1)[C@H]1CC[C@@]2(O)[C@H]3Cc4ccc(O)c5c4[C@@]2(CCN3CC2CC2)[C@H]1O5.Cl` [Compound 21, 17-Cyclopropylmethyl-3,14β-dihydroxy-4,5α-epoxy-6α-[(2E)-3′-(furan-2″-yl)-N-methylprop-2-enamido]morphinan Hydrochloride]?
time point of highest plasma concentration [1]: 5 min; Kp at 5 min ([1]; brain and plasma): 0.027; Kp at 10 min ([1]; brain and plasma): 0.186; Kp at 0.5 h ([1]; brain and plasma): 0.633; Kp at 1 h ([1]; brain and plasma): 0.938; EC50 (MOR [2]): 0.58 ± 0.17 nM; [35S]-GTPγS functional activity MOR Emax (%) (MOR [2]): low efficacy MOR partial agonism; Emax (MOR [2]): 19.7 ± 0.7%; EC50 (DOR [3]): 1.28 ± 0.28 nM; Emax (DOR [3]): > 80%; antinociceptive effects significant until (time postinjection) (male Swiss Webster mice [4]; 0.1 mg/kg s.c.): 3 h; duration of action (male Swiss Webster mice [4]; 0.1 mg/kg s.c.): 3 h; onset of antinociceptive effects (male Swiss Webster mice [4]): approximately 30 min; duration of action (male Swiss Webster mice [4]; [9]): > 3 h; half-life (in vitro): > 2 h; microsomal CLint (in vitro): < 5.8 µL/min/mg; locomotor activity (male Swiss Webster mice [5]): significant decrease in vertical counts at the largest dose tested; average speed by time versus vehicle (male Swiss Webster mice [5]): did not result in average speeds significantly different from vehicle at any time point; Ki (DOR [6]): 0.93 ± 0.21 nM; radioligand binding affinity (Ki, nM) DOR (DOR [6]; [3H]diprenorphine, hDOR-CHO membranes): subnanomolar; antagonism of antinociceptive effects by nor-BNI (KOR antagonist) pretreatment (male Swiss Webster mice [7]): antagonized; antagonism of antinociceptive effects by β-FNA (MOR antagonist) pretreatment (male Swiss Webster mice [7]): not antagonized by β-FNA; antagonism of antinociceptive effects by NTI (DOR antagonist) pretreatment (male Swiss Webster mice [7]): antagonized; antagonism of antinociceptive effects by NTI and nor-BNI pretreatment together (male Swiss Webster mice [7]): seemed to compound the decrease; Ki (KOR): 0.14 ± 0.02 nM; radioligand binding affinity (Ki, nM) KOR (KOR): subnanomolar; selectivity ratio δ/κ (KOR): 7; selectivity ratio μ/κ (KOR): 1; Selectivity Ratio MOR/KOR (KOR; supplement csv): 1.43; Ki (MOR [8]): 0.2 ± 0.02 nM; radioligand binding affinity (Ki, nM) MOR (MOR [8]): subnanomolar
